Assay results reported in US6551774B1, “Diagnostic methods for conditions associated with elevated cellular levels of telomerase activity” (Board of Regents, The University of Texas System, priority 1992, dated 2003).
Where a name gives a salt, the structure may show the parent alone. Read-outs that look alike come from different tables or passages of the source.

How the values were obtained:
Tetrahymena cells [1] = assay: Progeny formation (cycloheximide resistance) of Tetrahymena conjugated in the presence of analog; assay type: cell-based, Tetrahymena thermophila; conditions: for % CHX-R: 0.017 mM analog (head prints MM)
Protocol: For analysis of cycloheximide (CHX) sensitivity of cells conjugated in the presence of analog, 50 ml cultures of each cell type were grown overnight in 2% PPYS, starved in Dryl's for 18 hours, mated (5×10^5 cells/ml) for 6 hours, then analog was added. Cells were allowed to complete mating in the presence of the analog. Twenty-four hours after mixing, cells were diluted in Dryl's solution, counted and plated at 1 cell per well of 96-well plates in 1% PPYS without analog. Cells were grown for 4 days in a humid chamber at 30° C., without shaking. Cells were then replica plated into 1% PPYS plus 15 μg/ml cycloheximide, allowed to grow for four days before scoring, and percent of CHX-resistant wells was calculated. Because generation of progeny expressing the cycloheximide marker requires successful production of a new macronucleus, cells whose macronuclear development was disrupted by the analog are killed in CHX.
This process involves de novo formation of new macronuclear telomeres in the progeny cells. Macronuclear development in ciliated protozoans such as Tetrahymena involves developmentally programmed, site-specific fragmentation of germline chromosomes into linear subchromosomes, whose ends are healed by de novo addition of telomeres. […] Because of the immediate requirement for telomere addition to fragmented DNA, it is possible that the latter process might be more sensitive to telomerase inhibition than telomere maintenance during vegetative growth. To test whether nucleoside analogs cause inhibition of macronuclear development due to a disruption of telomere formation, we mated two strains of Tetrahymena which are sensitive to cycloheximide, but whose progeny after mating are resistant to cycloheximide. Synchronized mated cells were treated with AZT at concentrations ranging from 10 μM to 5 mM for a period beginning just prior to when macronuclear development begins and continuing during macronuclear development (the period 6-24 hours after mating was initiated). […] In attempts to maximize the effect of AZT, cells were either refed at 6 hrs with 2% PPYS or Isobroth, or starved until 24 hrs (the duration of the AZT treatment). Such starvation arrests macronuclear development at an intermediate stage. When refed, macronuclear development would then be forced to proceed in the presence of the AZT. Control, unmated parental cells were also plated and exposed to drug.

[2] = biological target: T1, Tetrahymena thermophila telomerase (Tetrahymena thermophila, UniProt O77448); assay: Tetrahymena telomerase in vitro assay (incorporation of 32P label, gel of products); assay type: biochemical; conditions: for position on the telomerase RNA template of strongest chain termination: template residues numbered 1 to 9 (5′ to 3′); for Km: from competition of unlabeled with 32P-labeled nucleotide; for effect on the telomerase reaction: dideoxynucleoside triphosphates
T1 construct: A standard assay contained 50% by volume of heparin-agarose purified telomerase; endogenous in cells; host or cells: Tetrahymena thermophila cell extracts, heparin-agarose purified
T1 sequence (O77448 1-1117): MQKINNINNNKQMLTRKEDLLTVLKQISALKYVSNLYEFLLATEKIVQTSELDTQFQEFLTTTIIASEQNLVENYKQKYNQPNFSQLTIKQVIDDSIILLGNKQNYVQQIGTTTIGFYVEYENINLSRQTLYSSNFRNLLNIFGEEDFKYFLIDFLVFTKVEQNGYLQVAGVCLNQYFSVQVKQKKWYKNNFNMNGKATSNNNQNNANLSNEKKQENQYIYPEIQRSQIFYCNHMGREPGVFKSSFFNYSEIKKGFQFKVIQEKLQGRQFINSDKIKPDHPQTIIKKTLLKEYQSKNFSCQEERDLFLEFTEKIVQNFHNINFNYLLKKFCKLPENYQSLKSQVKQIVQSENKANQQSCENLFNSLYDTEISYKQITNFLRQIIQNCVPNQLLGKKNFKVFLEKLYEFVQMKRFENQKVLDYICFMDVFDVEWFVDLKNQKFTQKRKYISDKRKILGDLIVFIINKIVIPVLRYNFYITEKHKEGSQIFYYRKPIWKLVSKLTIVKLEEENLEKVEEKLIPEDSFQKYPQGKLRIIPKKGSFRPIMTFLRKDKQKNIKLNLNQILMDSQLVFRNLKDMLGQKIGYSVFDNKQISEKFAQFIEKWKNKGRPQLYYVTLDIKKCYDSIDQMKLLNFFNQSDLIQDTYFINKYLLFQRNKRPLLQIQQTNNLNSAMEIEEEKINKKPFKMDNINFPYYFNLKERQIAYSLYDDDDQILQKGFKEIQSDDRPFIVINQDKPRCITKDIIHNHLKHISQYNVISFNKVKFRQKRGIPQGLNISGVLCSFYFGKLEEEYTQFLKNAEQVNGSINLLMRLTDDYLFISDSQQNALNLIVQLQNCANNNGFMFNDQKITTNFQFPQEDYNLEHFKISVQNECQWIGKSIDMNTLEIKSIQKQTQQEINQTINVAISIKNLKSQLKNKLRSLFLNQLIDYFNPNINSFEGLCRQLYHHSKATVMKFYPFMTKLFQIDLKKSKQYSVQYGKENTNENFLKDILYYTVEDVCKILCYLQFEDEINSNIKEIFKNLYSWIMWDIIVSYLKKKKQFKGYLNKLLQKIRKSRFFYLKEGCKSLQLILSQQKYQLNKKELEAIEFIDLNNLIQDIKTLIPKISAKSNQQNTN
T1 sequence (W7X6T2 1-542 partner): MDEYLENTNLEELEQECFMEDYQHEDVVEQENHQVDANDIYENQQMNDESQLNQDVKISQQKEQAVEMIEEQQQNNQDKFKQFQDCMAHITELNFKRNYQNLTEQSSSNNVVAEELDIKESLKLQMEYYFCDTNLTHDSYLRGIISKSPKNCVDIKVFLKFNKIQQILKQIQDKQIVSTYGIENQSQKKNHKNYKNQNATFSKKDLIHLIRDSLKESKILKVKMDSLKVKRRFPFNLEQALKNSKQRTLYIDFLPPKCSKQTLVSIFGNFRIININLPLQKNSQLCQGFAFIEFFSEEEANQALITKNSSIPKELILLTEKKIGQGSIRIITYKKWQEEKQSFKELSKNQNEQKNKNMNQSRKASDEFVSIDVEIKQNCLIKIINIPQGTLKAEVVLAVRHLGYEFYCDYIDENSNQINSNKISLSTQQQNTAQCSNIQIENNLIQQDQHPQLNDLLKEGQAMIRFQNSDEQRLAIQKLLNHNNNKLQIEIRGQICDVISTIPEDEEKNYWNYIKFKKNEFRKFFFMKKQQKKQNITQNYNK
Protocol: AZT-triphosphate was obtained from Burroughs Wellcome, N.C. Ara-G-triphosphate was purchased from Calbiochem and ddNTPs from Sigma. Reaction mixes were kept on ice until ready for use, and then mixed into tubes containing analog for incubation at 30° C. Reaction times were thirty minutes. […] Identical reactions were run without primers as controls. […] Incorporation of ^32P label from either ^32P-TTP or ^32P-dGTP was measured to monitor the reaction rate.
The standard telomerase assay used in this example consists of incorporation of dGTP and TTP substrates, one triphosphate ^32P-labeled, into synthesized DNA in the reaction shown in FIG. 18A. […] Incorporation of ^32P label from either ^32P-TTP or ^32P-dGTP was measured to monitor the reaction rate, and the distributions of elongation products were analyzed by denaturing polyacrylamide gel electrophoresis.

Tetrahymena cells [3] = assay: Telomere length in vegetatively grown Tetrahymena by Southern blot; assay type: cell-based, Tetrahymena thermophila; conditions: 100 μM and 1 mM in Isobroth, after 5 days (16 generations)
Protocol: For analysis of macronuclear DNA from cultures containing the nucleoside analog AZT (Sigma), or controls lacking analog, at various timepoints during vegetative divisions, cells from stationary stock cultures were inoculated into 25 ml thymine-deficient Iso-sensitest broth (‘Isobroth’, Oxoid USA) in 250 ml flasks. Cultures were incubated at 30° C. with shaking (100 rpm) for 48 hours. Cells were counted and plated at 1000 cells/1.5 ml in 24-well plates (Falcon) and grown at 30° C., without shaking, for 48 hours. 5 μl of these log phase cells were used to inoculate 1 ml cultures (Isobroth) containing varied concentrations of nucleoside analog. Thereafter, every 2-4 days cells were transferred, either 5 μl per well, or 1-3 μl using a multi-pronged replicator into fresh 1 ml broth containing AZT. Remaining cells were pelleted and stored at −80° C. until processed for DNA analysis.
For analysis of macronuclear DNA from vegetative cultures containing the nucleoside analogs Ara-G (Calbiochem), ddG (Calbiochem), or ddI (Calbiochem), or controls lacking analog, stock cultures were grown overnight in 2% PPYS as described. Cells were counted and plated at 100 cells/2 ml in 2% PPYS containing varied amounts of analog, 1% DMSO (Fisher) (as a control for ddG and Ara-G), or 2% PPYS alone. Cells were replica plated into fresh medium every 2-6 days, and remaining cells were pelleted and stored at −80° C. until processed for DNA analysis.
For analysis of macronuclear DNA from vegetative cultures containing d4T (Sigma) or control lacking the analog, stock cultures (SB210 VI) were grown overnight in Isobroth as described. Cells were then counted and duplicate cultures inoculated at 500 cells/5 ml Isobroth in 50 ml conical tubes, and grown at 30° C., shaking 80 rpm. 500-2000 cells were transfered to fresh broth every 2-4 days, and the remainder pelleted and stored at −80° C. until processed for DNA analysis.
Restriction digests, agarose gel electrophoresis, transfer of DNA to Nytran filters (Schleicher and Schuell), and hybridization with ^32P-nick-trapplated or random-primed probes were carried out using standard procedures (Maniatis et.al. 1989). Telomere length was analyzed as described previously for Tetrahymena [Larson 50 Cell, 477, 1987].
Telomere lengths in cells grown in the presence of the different analogs were monitored by Southern blot analysis of DNA samples extracted at a series of time points during the subculturings. The telomeres of cells grown vegetatively in 1 and 5 mM AZT in 2% PPYS medium were reproducibly shortened by up to an average of 170 base pairs compared with the control cultures grown in 2% PPYS in the absence of the drug (FIG. 21A and B). This shortening of telomeres occured in a concentration-dependent manner (FIG. 21B), with at least 50% of the maximal shortening effect occurring by 10 μM AZT, the lowest concentration tested.

Q: `Nc1nc2c(ncn2COCCO)c(=O)[nH]1` [Acyclo-G, Acycloguanosine] was tested. Which “% CHX-R” value (Tetrahymena cells [1]; first block for the analog) did it give?
A: The value was 75%.

Q: And the “% CHX-R” value (Tetrahymena cells [1]; second block for the analog)?
A: The value was 69%.

Q: What about the “# CHX-R” value (Tetrahymena cells [1]; 0.017 mM analog, first block for the analog, number of cycloheximide-resistant wells) of the same compound?
A: Its value is 80.

Q: And the “irreversible disruption of macronuclear development” value (Tetrahymena cells [1]; analog present during conjugation)?
A: Its value is “little or no irreversible disruption”.

Q: How did the IC50 ([2]; standard assay, 32P-dGTP / 32P-NTP incorporation, 30 min at 30° C., read-out: concentration at which 50% inhibition of incorporation of 32P label occurred) turn out when `Nc1nc2c(ncn2[C@@H]2O[C@H](COP(=O)(O)OP(=O)(O)OP(=O)(O)O)[C@@H](O)[C@@H]2O)c(=O)[nH]1` [Ara-GTP, arabinofuranyl-guanosine triphosphate] was run?
A: Its IC50 is 0.7 µM.

Q: And the “position on the telomerase RNA template of strongest chain termination” value [2]?
A: The value was 4.

Q: Which “effect on amount and average length of elongation products” value ([2]; 40 mM, 40 mM sodium sulfate control little decrease) does the source give for `[H]/N=C(/N)N[C@H]1[C@H](O)[C@@H](O)[C@H](O[C@@H]2O[C@@H](C)[C@](O)(C=O)[C@H]2O[C@@H]2O[C@@H](CO)[C@H](O)[C@@H](O)[C@@H]2NC)[C@@H](N/C(N)=N\[H])[C@@H]1O` [Streptomycin sulfate, streptomycin sulfate] here?
A: The value was “dramatically reduced”.

Q: How did the Km [2] turn out when `Cc1cn([C@H]2C[C@H](O)[C@@H](COP(=O)(O)OP(=O)(O)OP(=O)(O)O)O2)c(=O)[nH]c1=O` [TTP] was run?
A: The Km was ~5 µM.

Q: With `Cc1cn([C@H]2C=C[C@@H](CO)O2)c(=O)[nH]c1=O` [d4T, 3′ deoxy-2′,3′-didehydrothymidine] as the compound, how does the telomere length (Tetrahymena cells [3]) read?
A: The telomere length was “produced shortened telomeres”.

Q: For `Nc1nc2c(ncn2[C@H]2C[C@H](O)[C@@H](COP(=O)(O)OP(=O)(O)OP(=O)(O)O)O2)c(=O)[nH]1` [dGTP], which Km [2] is on record?
A: The Km was 1 to 2 µM.

Q: For `Nc1ncnc2c1ncn2[C@H]1CC[C@@H](COP(=O)(O)OP(=O)(O)OP(=O)(O)O)O1` [ddATP], which “effect on the telomerase reaction” value [2] is on record?
A: Its value is “no significant effects”.

Q: With `Nc1ccn([C@H]2CC[C@@H](COP(=O)(O)OP(=O)(O)OP(=O)(O)O)O2)c(=O)n1` [ddCTP] as the compound, how does the “effect on the telomerase reaction” value [2] read?
A: Its value is “no significant effects”.

Q: For `Nc1nc2c(ncn2[C@H]2CC[C@@H](COP(=O)(O)OP(=O)(O)OP(=O)(O)O)O2)c(=O)[nH]1` [ddGTP], which IC50 [2] is on record?
A: Its IC50 is < 0.1 µM.

Q: With `O=c1[nH]cnc2c1ncn2[C@H]1CC[C@@H](COP(=O)(O)OP(=O)(O)OP(=O)(O)O)O1` [ddITP, dideoxyinosine triphosphate] as the compound, how does the IC50 [2] read?
A: Its IC50 is 3 µM.

Q: And the “position on the telomerase RNA template of strongest chain termination” value [2]?
A: The value was 5.

Q: Which IC50 [2] does the source give for `Cc1cn([C@H]2CC[C@@H](COP(=O)(O)OP(=O)(O)OP(=O)(O)O)O2)c(=O)[nH]c1=O` [ddTTP] here?
A: The IC50 was 5 µM.

Q: Which “effect on quantitative incorporation of label and banding pattern” value ([2]; concentrations up to 100 μg/ml) does the source give for `CO[C@H]1/C=C/O[C@@]2(C)Oc3c(C)c(O)c4c(O)c(c(/C=N/N5CCN(C)CC5)c(O)c4c3C2=O)NC(=O)/C(C)=C\C=C\[C@H](C)[C@H](O)[C@@H](C)[C@@H](O)[C@@H](C)[C@H](OC(C)=O)[C@@H]1C` [rifampin] here?
A: The value was “did not affect the quantitative incorporation of label or change the banding pattern”.
